In patent US20240350418A1, “LIPID-BASED COMPOSITION FOR ORAL ADMINISTRATION OF BRADYKININ B2-RECEPTOR ANTAGONISTS” (PHARVARIS GMBH, priority 2021, published 2024):

Tests used:
human B2 receptor = molecular target: T1, human B2 receptor (Homo sapiens, UniProt P30411); test: In vitro pharmacology testing, antagonist potency; format: biochemical
T1 sequence (P30411 1-391): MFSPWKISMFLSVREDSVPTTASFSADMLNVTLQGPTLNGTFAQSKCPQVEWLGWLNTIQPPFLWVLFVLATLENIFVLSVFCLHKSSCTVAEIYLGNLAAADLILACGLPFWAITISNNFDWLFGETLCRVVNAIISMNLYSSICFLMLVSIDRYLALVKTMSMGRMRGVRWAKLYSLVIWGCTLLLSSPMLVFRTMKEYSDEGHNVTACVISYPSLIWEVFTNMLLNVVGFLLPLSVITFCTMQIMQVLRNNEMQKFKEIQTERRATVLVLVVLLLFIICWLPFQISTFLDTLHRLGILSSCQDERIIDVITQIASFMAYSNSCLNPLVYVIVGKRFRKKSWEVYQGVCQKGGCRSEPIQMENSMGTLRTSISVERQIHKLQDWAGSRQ

rat B2 receptor = molecular target: T2, rat B2 receptor (Rattus norvegicus, UniProt P25023); test: In vitro pharmacology testing, antagonist potency; format: biochemical
T2 sequence (P25023 1-396): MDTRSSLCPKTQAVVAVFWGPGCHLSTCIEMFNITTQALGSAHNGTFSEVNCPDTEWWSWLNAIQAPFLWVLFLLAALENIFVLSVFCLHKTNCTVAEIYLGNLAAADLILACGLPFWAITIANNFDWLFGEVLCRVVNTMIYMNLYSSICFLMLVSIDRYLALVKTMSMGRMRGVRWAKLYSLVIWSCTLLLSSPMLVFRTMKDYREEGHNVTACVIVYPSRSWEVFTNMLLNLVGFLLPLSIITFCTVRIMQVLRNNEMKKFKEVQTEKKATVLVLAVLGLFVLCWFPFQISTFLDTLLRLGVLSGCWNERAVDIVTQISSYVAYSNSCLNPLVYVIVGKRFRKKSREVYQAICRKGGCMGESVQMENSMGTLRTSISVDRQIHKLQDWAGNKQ

dog B2 receptor = molecular target: T3, dog B2 receptor (Canis lupus familiaris, UniProt Q9BDQ4); test: In vitro pharmacology testing, antagonist potency; format: biochemical
T3 sequence (Q9BDQ4 1-392): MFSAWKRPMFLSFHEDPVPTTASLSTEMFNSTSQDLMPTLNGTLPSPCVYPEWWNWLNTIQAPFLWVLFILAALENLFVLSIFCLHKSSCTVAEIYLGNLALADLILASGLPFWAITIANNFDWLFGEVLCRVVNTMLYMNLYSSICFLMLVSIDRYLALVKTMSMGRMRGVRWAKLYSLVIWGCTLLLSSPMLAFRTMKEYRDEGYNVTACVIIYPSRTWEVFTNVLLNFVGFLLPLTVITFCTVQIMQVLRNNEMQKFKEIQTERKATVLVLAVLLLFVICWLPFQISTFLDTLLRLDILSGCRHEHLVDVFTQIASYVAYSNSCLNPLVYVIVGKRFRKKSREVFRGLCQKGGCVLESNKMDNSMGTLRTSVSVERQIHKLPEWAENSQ

[1] = Single dose pharmacokinetic study in monkeys; format: in vivo, Cynomolgus monkeys; conditions: after administration, except one animal treated with the Test Formulation
Procedure: The pharmacokinetic properties of a liquid composition according to the invention after a single oral administration in Cynomolgus monkeys was studied and compared with those of a suspension of the same API in an aqueous carrier comprising methylcellulose (1 wt. %). The Test Formulation was based on composition E of Example 1, except that the concentration of the API was 5 mg/mL in essentially the same liquid vehicle as composition E. The Comparative Formulation comprised the same API at a concentration of 2 mg/mL, formulated as an aqueous drug suspension further comprising methylcellulose (1 wt %). […]
The pharmacokinetic parameters were determined from the individual plasma concentrations by non-compartmental analysis, using Kinetica™ 4.4.1 (Thermo Fisher). […]
Maximum plasma concentration (Cmax), sampling time of Cmax (Tmax), and sampling time of the last plasma concentration >LLOQ (Tlast) parameters were determined from the observations. The area under the plasma concentration-time curve from the time of dosing to the last quantifiable concentration was calculated using the linear up/logarithmic down trapezoidal rule (AUClast). At least 3 consecutive quantifiable concentrations had to be available for AUC calculation. […]
The percentage of extrapolated AUC from Tlast to infinity was calculated by Kinetica™ 4.4.1, using the following equation: […]

monkey B2 receptor = test: In vitro pharmacology testing, antagonist potency; format: biochemical
bradykinin B2 receptor = molecular target: T4, bradykinin B2 receptor (Homo sapiens, UniProt P30411); test: Estimated therapeutic efficacious threshold plasma concentration; format: in vivo
T4 sequence (P30411 1-391): T1 sequence (P30411 1-391)

mouse B2 receptor = molecular target: T5, mouse B2 receptor (Mus musculus, UniProt P32299); test: In vitro pharmacology testing, antagonist potency; format: biochemical
T5 sequence (P32299 1-392): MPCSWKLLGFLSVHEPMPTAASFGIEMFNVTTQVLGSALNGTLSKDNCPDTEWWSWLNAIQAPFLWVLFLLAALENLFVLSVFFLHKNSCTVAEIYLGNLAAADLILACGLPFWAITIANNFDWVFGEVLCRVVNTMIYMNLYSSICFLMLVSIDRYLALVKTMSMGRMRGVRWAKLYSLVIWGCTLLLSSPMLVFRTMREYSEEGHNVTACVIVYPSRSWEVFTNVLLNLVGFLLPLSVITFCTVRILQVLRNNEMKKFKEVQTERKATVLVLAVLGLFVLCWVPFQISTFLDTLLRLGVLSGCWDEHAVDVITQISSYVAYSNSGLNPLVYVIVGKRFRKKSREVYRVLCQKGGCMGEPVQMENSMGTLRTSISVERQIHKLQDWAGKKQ

[2H][C@@](C)(NC(=O)COC(F)F)c1cc(F)cc(Cl)c1COc1cccc2c(-c3ncnn3C)cc(C)nc12 [API, (S)-N-(1-deutero-1-(3-chloro-5-fluoro-2-((2-methyl-4-(1-methyl-1H-1,2,4-triazol-5-yl)quinolin-8-yloxy)methyl)phenyl)ethyl)-2-(difluoromethoxy)acetamide monohydrate]
antagonist potency (human B2 receptor): high antagonist potency
antagonist potency (rat B2 receptor): low antagonist potency
antagonist potency (dog B2 receptor): low antagonist potency
time up to which API plasma concentrations were quantifiable [1]: up to 24 hours
antagonist potency (monkey B2 receptor): high antagonist potency
estimated EC50 (therapeutic efficacious threshold plasma concentration) (bradykinin B2 receptor): 2.4 ng/mL
estimated EC85 (therapeutic efficacious threshold plasma concentration) (bradykinin B2 receptor): 13.8 ng/mL
antagonist potency (mouse B2 receptor): low antagonist potency
